From patent US5733913A, “6-Aryl pyrido[2,3-d] pyrimidines and naphthyridines for inhibiting protein tyrosine kinase mediated cellular proliferation” (priority 1995, dated 1998)
Where two headings read alike, the source gives them in different places.

Experiments:
Format in all cases: biochemical
[1] = biological target: T1, mouse PDGF-β receptor tyrosine kinase (Mus musculus, UniProt P05622); experiment: PDGF receptor tyrosine kinase assay; conditions: for IC50: read-out: Inhibition of Protein Tyrosine Kinases, PDGF, IC50; for inhibition at 50 µM: read-out: Inhibition of Protein Tyrosine Kinases, PDGF, % Inhibition
T1 construct: a fragment of DNA that codes for the intracellular tyrosine kinase domain; made in house; host or cells: Sf9 insect cells (baculovirus), cell lysate
T1 sequence (P05622 599-961 limits assumed): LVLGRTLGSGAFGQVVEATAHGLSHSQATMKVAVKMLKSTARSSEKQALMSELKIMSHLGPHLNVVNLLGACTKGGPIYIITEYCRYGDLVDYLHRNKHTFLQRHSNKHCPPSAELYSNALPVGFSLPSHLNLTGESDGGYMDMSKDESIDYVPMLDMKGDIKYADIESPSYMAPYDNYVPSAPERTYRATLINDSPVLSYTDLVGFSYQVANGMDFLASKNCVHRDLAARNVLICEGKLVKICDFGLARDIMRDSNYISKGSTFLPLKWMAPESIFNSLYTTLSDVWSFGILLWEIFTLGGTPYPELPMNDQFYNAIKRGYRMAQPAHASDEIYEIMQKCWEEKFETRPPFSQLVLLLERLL
Text: (§1) PDGF and FGF Receptor Tyrosine Kinase Assays
(§2) Full length cDNAs for the mouse PDGF-β and human FGF-1 (flg) receptor tyrosine kinases were obtained from J. Escobedo and prepared as described in J. Biol. Chem., 262:1482-1487 (1991), and PCR primers were designed to amplify a fragment of DNA that codes for the intracellular tyrosine kinase domain. The fragment was melded into a baculovirus vector, cotransfected with AcMNPV DNA, and the recombinant virus isolated. SF9 insect cells were infected with the virus to overexpress the protein, and the cell lysate was used for the assay. […] Briefly, to each well was added 82.5 μL of incubation buffer containing 25 mM Hepes (pH 7.0), 150 mM NaCl, 0.1% Triton X-100, 0.2 mM PMSF, 0.2 mM Na3 VO4, 10 mM MnCl2, and 750 μg/mL of Poly (4:1) glutamate-tyrosine followed by 2.5 μL of inhibitor and 5 μL of enzyme lysate (7.5 μg/μL FGF-TK or 6.0 μg/μL PDGF-TK) to initiate the reaction. Following a 10 minute incubation at 25° C., 10 μL of γ^32 P-ATP (0.4 μCi plus 50 μM ATP) was added to each well and samples were incubated for an additional 10 minutes at 25° C. The reaction was terminated by the addition of 100 μL of 30% trichloroacetic acid (TCA) containing 20 mM sodium pyrophosphate and precipitation of material onto glass fiber filter mats (Wallac). […] Nonspecific activity was defined as radioactivity retained on the filters following incubation of samples with buffer alone (no enzyme). Specific enzymatic activity was defined as total activity (enzyme plus buffer) minus nonspecific activity.

C-src kinase = biological target: T2, C-src kinase (Homo sapiens, UniProt P12931); experiment: C-src kinase assay; conditions: for IC50: read-out: Inhibition of Protein Tyrosine Kinases, C-src, IC50; for inhibition at 50 µM: read-out: Inhibition of Protein Tyrosine Kinases, C-src, % Inhibition
T2 construct: made in house; host or cells: baculovirus-infected insect cells
T2 sequence (P12931 whole entry): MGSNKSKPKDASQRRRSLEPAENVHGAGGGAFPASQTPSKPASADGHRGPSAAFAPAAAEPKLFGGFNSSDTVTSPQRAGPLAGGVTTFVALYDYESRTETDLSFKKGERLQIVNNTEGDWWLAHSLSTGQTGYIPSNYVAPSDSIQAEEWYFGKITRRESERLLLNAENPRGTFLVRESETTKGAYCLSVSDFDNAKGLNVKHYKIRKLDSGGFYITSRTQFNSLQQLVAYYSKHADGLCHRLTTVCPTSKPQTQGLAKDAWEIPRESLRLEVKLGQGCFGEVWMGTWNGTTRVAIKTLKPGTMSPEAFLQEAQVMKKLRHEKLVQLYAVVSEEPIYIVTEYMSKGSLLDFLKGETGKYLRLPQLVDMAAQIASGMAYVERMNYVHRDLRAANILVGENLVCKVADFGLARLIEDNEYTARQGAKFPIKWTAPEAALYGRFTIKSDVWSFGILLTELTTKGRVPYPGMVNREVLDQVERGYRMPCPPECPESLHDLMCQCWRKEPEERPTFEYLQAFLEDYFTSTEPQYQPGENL
Description: V-src and C-src Kinase Assays
V-src or C-src kinase is purified from baculovirus infected insect cell lysates using an antipeptide monoclonal antibody directed against the N-terminal 2-17 amino acids. The antibody, covalently linked to 0.65-μm latex beads, is added to a suspension of insect cell lysis buffer comprised of 150 mM NaCl, 50 mM Tris pH 7.5, 1 mM DTT, 1% NP-40, 2 mM EGTA, 1 mM sodium vanadate, 1 mM PMSF, 1 μg/mL each of leupeptin, pepstatin, and aprotinin. […] At the end of the lysate incubation, the beads are rinsed 3 times in lysis buffer, resuspended in lysis buffer containing 10% glycerol, and frozen. These latex beads are thawed, rinsed three times in assay buffer which is comprised of 40 mM tris pH 7.5, 5 mM MgCl2, and suspended in the same buffer. In a Millipore 96-well plate with a 0.65 μm polyvinylidine membrane bottom are added the reaction components: 10-μL v-src or c-src beads, 10 μL of 2.5 mg/mL poly GluTyr substrate, 5 μM ATP containing 0.2 μCi labeled ^32 P-ATP, 5μL DMSO containing inhibitors or as a solvent control, and buffer to make the final volume 125 μL. The reaction is started at room temperature by addition of the ATP and quenched 10 minutes later by the addition of 125 μL of 30% TCA, 0.1M sodium pyrophosphate for 5 minutes on ice. The plate is then filtered and the wells washed with two 250-μL aliquots of 15% TCA, 0.1M pyrophosphate. The filters are punched, counted in a liquid scintillation counter, and the data examined for inhibitory activity in comparison to a known inhibitor such as erbstatin. The method is described more fully in J. Med. Chem., 37:598-609 (1994).

[2] = biological target: T3, human FGF-1 (flg) receptor tyrosine kinase (Homo sapiens, UniProt P11362); experiment: FGF receptor tyrosine kinase assay; conditions: for IC50: read-out: Inhibition of Protein Tyrosine Kinases, FGF, IC50
T3 construct: a fragment of DNA that codes for the intracellular tyrosine kinase domain; made in house; host or cells: Sf9 insect cells (baculovirus), cell lysate
T3 sequence (P11362 478-767 limits assumed): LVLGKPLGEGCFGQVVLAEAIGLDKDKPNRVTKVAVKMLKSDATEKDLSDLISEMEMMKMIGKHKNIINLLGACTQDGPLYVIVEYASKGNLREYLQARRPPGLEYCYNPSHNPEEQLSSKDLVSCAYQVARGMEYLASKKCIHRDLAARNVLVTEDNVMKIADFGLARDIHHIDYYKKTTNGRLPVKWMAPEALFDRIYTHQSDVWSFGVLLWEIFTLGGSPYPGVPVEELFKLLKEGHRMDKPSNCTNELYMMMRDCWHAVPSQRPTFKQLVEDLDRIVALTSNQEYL
Text: as §1, §2

Row | SMILES | IC50 [1] | IC50 (C-src kinase) | IC50 [2] | inhibition at 50 µM (C-src kinase; at 50 μM) | inhibition at 50 µM [1] | inhibition at 50 µM ([2]; at 50 μM, read-out: Inhibition of Protein Tyrosine Kinases, FGF, % Inhibition) | inhibition at 50 µM (C-src kinase)
1 | CCCCCCCCNC(=O)Nc1nc2nc(NCCCN3CCN(C)CC3)ncc2cc1-c1c(Cl)cccc1Cl [Example 47, 1-{6-(2,6-Dichlorophenyl)-2-[3-(4-methyl-piperazin-1-yl)-propylamino]-pyrido[2,3-d]pyrimidin-7-yl}-3-octyl-urea] | 6.17 µM | 0.161 µM | 0.637 µM |  |  |  | 
2 | CN1CCN(CCCNc2ncc3cc(-c4c(Cl)cccc4Cl)c(NC(=O)Nc4ccc(C(F)(F)F)cc4)nc3n2)CC1 [Example 48, 1-{6-(2,6-Dichlorophenyl)-2-[3-(4-methyl-piperazin-1-yl)-propylamino]-pyrido[2,3-d]pyrimidin-7-yl}-3-(4-trifluoromethyl-phenyl)-urea] | 5.32 µM | 0.26 µM | 0.613 µM |  |  |  | 
3 | CCN(CC)CCCCNc1ncc2cc(-c3c(Cl)cccc3Cl)c(N)nc2n1 [Example 53, 6-(2,6-Dichlorophenyl)-N^2-(4-diethylamino-butyl)-pyrido[2,3-d]pyrimidine-2,7-diamine] | 7.08 µM | 0.153 µM | 0.693 µM |  |  |  | 
4 | Nc1nc2nc(NCCCN3CCOCC3)ncc2cc1-c1c(Cl)cccc1Cl [Example 58, 6-(2,6-Dichlorophenyl)-N^2-(3-morpholin-4-yl-propyl)-pyrido[2,3-d]pyrimidine-2,7-diamine] | 19 µM |  | 3.46 µM | 110% |  |  | 
5 | CCN(CC)CCCNc1ncc2cc(-c3c(Br)cccc3Br)c(N)nc2n1 [Example 61, 6-(2,6-Dibromo-phenyl)-N^2-[3-diethylamino-propyl)-pyrido[2,3-d]pyrimidine-2,7-diamine] | 45.6 µM | 0.764 µM | 7.85 µM |  |  |  | 
6 | COc1cccc(OC)c1-c1cc2cnc(N)nc2nc1N [Example 64, 6-(2,6-Dimethoxy-phenyl)-pyrido[2,3-d]pyrimidine-2,7-diamine] |  |  |  | 0% | 13% | 23.8% | 
7 | CCN(CC)CCNc1ncc2cc(-c3c(Cl)cccc3Cl)c(N)nc2n1 [Example 65, 6-(2,6-Dichlorophenyl)-N^2-(2-diethylamino-ethyl)-pyrido[2,3-d]pyrimidine-2,7-diamine] |  |  | 17 µM | 95% | 29.6% |  | 
8 | CCN(CCO)CCCNc1ncc2cc(-c3c(Cl)cccc3Cl)c(N)nc2n1 [Example 70, 2-({3-[7-Amino-6-(2,6-dichlorophenyl)-pyrido[2,3-d]pyrimidin-2-ylamino]-propyl}-ethyl-amino)-ethanol] | 31.4 µM | 0.929 µM | 2.59 µM |  |  |  | 
9 | CCN(CC)CCCNc1ncc2cc(-c3c(Cl)cccc3Cl)c(N=CN(C)C)nc2n1 [Example 78, N'-[6-(2,6-Dichlorophenyl)-2-{3-(diethylamino)propyl-amino}pyrido[2,3-d]pyrimidin-7-yl]-N,N-dimethylformamidine] | 32.9 µM | 3.99 µM | 4.01 µM |  |  |  | 
10 | CC(C)(C)NC(=O)Nc1nc2nc(N)ncc2cc1-c1ccccc1 [Example 82, 1-(2-Amino-6-phenyl-pyrido[2,3-d]pyrimidin-7-yl)-3-tert-butyl-urea] | 4.67 µM |  | 3.71 µM | 77.6% |  |  | 
11 | CC(C)(C)NC(=O)Nc1nc2nc(N)ncc2cc1-c1c(F)cccc1F [Example 87, 1-[2-Amino-6-(2,6-difluoro-phenyl)-pyrido[2,3-d]pyrimidin-7-yl]-3-tert-butyl-urea] | 1.88 µM |  | 0.118 µM |  |  |  | 92.7%
12 | Cc1cc(C)cc(-c2cc3cnc(N)nc3nc2NC(=O)NC(C)(C)C)c1 [Example 95, 1-[2-Amino-6-(3,5-dimethyl-phenyl)-pyrido[2,3-d]pyrimidin-7-yl]-3-tert-butyl-urea] | 41.6 µM |  | 0.605 µM | 0% |  |  | 
13 | Cc1cc(C)c(-c2cc3cnc(N)nc3nc2NC(=O)NC(C)(C)C)c(C)c1 [Example 97, 1-[2-Amino-6-(2,4,6-trimethyl-phenyl)-pyrido[2,3-d]pyrimidin-7-yl]-3-tert-butyl-urea] | 1.73 µM |  | 0.34 µM |  |  |  | 28.9%
14 | Cc1cc(C)c(C)c(-c2cc3cnc(N)nc3nc2N)c1C [Example 98, 6-(2,3,5,6-Tetramethyl-phenyl)-pyrido[2,3-d]pyrimidine-2,7-diamine] |  |  | 1.8 µM | 0.5% | 34.3% |  | 

Now from value to compound, other results behind:

Row | IC50 [1] | IC50 (C-src kinase) | IC50 [2] | inhibition at 50 µM (C-src kinase; at 50 μM) | inhibition at 50 µM [1] | inhibition at 50 µM ([2]; at 50 μM, read-out: Inhibition of Protein Tyrosine Kinases, FGF, % Inhibition) | SMILES | inhibition at 50 µM (C-src kinase)
15 | 0.405 µM | 0.011 µM | 0.091 µM |  |  |  | COc1ccccc1NC(=O)Nc1nc2nc(NCCCN3CCN(C)CC3)ncc2cc1-c1c(Cl)cccc1Cl [Example 43, 1-{6-(2,6-Dichlorophenyl)-2-[3-(4-methyl-piperazin-1-yl)-propylamino]-pyrido[2,3-d]pyrimidin-7-yl}-3-(2-methoxy-phenyl)-urea] | 
16 | 1.55 µM | 0.023 µM | 0.196 µM |  |  |  | CN1CCN(CCCNc2ncc3cc(-c4c(Cl)cccc4Cl)c(NC(=O)Nc4ccc(Br)cc4)nc3n2)CC1 [Example 44, 1-(4-Bromo-phenyl)-3-{6-(2,6-dichlorophenyl)-2-[3-(4-methyl-piperazin-1-yl)-propylamino]-pyrido[2,3-d]pyrimidin-7-yl}-urea] | 
17 | 1.85 µM | 0.04 µM | 0.198 µM |  |  |  | CN1CCN(CCCNc2ncc3cc(-c4c(Cl)cccc4Cl)c(NC(=O)Nc4ccc(Cl)cc4)nc3n2)CC1 [Example 45, 1-(4-Chloro-phenyl)-3-{6-(2,6-dichlorophenyl)-2-[3-(4-methyl-piperazin-1-yl)-propylamino]-pyrido[2,3-d]pyrimidin-7-yl}-urea] | 
18 | 0.42 µM | 0.024 µM | 0.0535 µM |  |  |  | CCNC(=O)Nc1nc2nc(NCCCN3CCN(C)CC3)ncc2cc1-c1c(Cl)cccc1Cl [Example 49, 1-{6-(2,6-Dichlorophenyl)-2-[3-(4-methyl-piperazin-1-yl)-propylamino]-pyrido[2,3-d]pyrimidin-7-yl}-3-ethyl-urea] | 
19 | 7.01 µM | 1.78 µM | 0.543 µM |  |  |  | Nc1ncc2cc(-c3c(F)cccc3F)c(N)nc2n1 [Example 63, 6-(2,6-Difluoro-phenyl)-pyrido[2,3-d]pyrimidine-2,7-diamine] | 
20 | 2.26 µM | 3.82 µM | 0.162 µM |  |  |  | CC(C)(C)NC(=O)Nc1nc2nc(N)ncc2cc1-c1cccc(Cl)c1Cl [Example 84, 1-[2-Amino-6-(2,3-dichlorophenyl)-pyrido[2,3-d]pyrimidin-7-yl]-3-tert-butyl-urea] | 
21 | 7.63 µM | 4.46 µM | 0.129 µM |  |  |  | Nc1ncc2cc(-c3c(Cl)ccc(Cl)c3Cl)c(N)nc2n1 [Example 85, 6-(2,3,6-Trichloro-phenyl)-pyrido[2,3-d]pyrimidine-2,7-diamine] | 
22 | 2.96 µM | 1.41 µM | 0.114 µM |  |  |  | CC(C)(C)NC(=O)Nc1nc2nc(N)ncc2cc1-c1c(Cl)ccc(Cl)c1Cl [Example 86, 1-[2-Amino-6-(2,3,6-trichloro-phenyl)-pyrido[2,3-d]pyrimidin-7-yl]-3-tert-butyl-urea] | 
23 | 6.05 µM | 4.17 µM | 0.343 µM |  |  |  | Cc1cccc(-c2cc3cnc(N)nc3nc2NC(=O)NC(C)(C)C)c1C [Example 93, 1-[2-Amino-6-(2,3-dimethyl-phenyl)-pyrido[2,3-d]pyrimidin-7-yl]-3-tert-butyl-urea] | 
